From patent US20150315188A1, “COMPOUNDS AND METHODS FOR TREATMENT OF HYPERTENSION” (MEDIVATION TECHNOLOGIES, INC., priority 2012, published 2015)

Tests used:
[1] = target: T1, rat adrenergic α1B receptor (Rattus norvegicus, UniProt P15823); assay: Radioligand binding, adrenergic α1B (Protocol Group A); conditions: 0.1 μM compound, [3H]Prazosin; for percent inhibition of specific binding, Adrenergic α1B: 0.1 µM; for inhibition at 0.1 µM: read-out: percent inhibition of specific binding, Adrenergic α1B
T1 construct: rat adrenergic α1B receptor obtained from Wistar Rat liver; from tissue; host or cells: Wistar rat liver
T1 sequence (P15823 1-515): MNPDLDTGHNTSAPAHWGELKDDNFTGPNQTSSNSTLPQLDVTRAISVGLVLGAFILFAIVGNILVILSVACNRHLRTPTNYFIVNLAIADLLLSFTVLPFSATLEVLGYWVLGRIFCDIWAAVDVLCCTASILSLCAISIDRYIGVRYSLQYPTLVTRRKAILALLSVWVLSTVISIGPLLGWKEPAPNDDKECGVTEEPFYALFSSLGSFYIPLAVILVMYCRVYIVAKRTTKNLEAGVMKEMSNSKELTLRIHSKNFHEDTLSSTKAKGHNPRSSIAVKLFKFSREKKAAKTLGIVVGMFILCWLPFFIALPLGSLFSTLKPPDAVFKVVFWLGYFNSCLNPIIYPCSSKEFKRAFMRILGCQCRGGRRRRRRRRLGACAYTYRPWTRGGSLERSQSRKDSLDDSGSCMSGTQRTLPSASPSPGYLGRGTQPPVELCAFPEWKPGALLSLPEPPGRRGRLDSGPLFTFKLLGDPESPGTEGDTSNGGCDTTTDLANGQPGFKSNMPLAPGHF
Experimental: To evaluate in radioligand binding assays the activity of compounds of the invention, rat adrenergic α1B receptor obtained from Wistar Rat liver (Garcia-S'ainz, J. et al, Biochem. Biophys. Res. Commun. 186:760, 1992; Michel, A. et al, Br. J. Pharmacol. 98:883, 1989) in a modified Tris-HCl buffer (50 mM Tris-HCl buffer, pH 7.4, 0.5 mM EDTA) was used. Compounds of the invention were incubated with 0.25 nM [^3H]Prazosin for 60 min at 25° C. Non-specific binding was estimated in the presence of 10 μM phentolamine. Receptor proteins were filtered and washed, the filters were then counted to determine [^3H]Prazosin specifically bound. Compounds were screened at 1 μM or lower, using 1% DMSO as vehicle. Compounds of the invention were tested in this biochemical assay and percent inhibition of specific binding was determined. Biochemical assay results are presented as the percent inhibition of specific binding in Table B1a.

[2] = target: T2, Human adrenergic α2B receptor (Homo sapiens, UniProt P18089); assay: Radioligand binding, adrenergic α2B (Protocol Group A); set-up: expressed in transfected cells; host or cells: CHO-K1; conditions: 0.03 μM compound, [3H]Rauwolscine; for percent inhibition of specific binding, Adrenergic α2B: 0.03 µM; for inhibition at 0.03 µM: read-out: percent inhibition of specific binding, Adrenergic α2B
T2 sequence (P18089 1-450): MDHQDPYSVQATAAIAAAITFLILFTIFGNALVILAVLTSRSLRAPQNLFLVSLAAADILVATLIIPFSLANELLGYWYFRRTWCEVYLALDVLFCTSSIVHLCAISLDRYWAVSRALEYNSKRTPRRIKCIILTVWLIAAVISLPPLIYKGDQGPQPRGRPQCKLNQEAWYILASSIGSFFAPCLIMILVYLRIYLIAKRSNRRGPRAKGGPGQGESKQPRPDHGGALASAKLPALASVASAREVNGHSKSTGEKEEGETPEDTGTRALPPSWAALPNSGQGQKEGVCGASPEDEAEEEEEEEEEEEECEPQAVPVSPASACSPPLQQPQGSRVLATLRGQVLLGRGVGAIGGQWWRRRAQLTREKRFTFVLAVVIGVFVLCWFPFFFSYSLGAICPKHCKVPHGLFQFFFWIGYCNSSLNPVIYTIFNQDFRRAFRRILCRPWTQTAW
Experimental: To evaluate in radioligand binding assays the activity of compounds of the invention, human recombinant adrenergic α2B receptor expressed in Chinese hamster ovary (CHO) K1 cells (Uhlen, S. et al, Eur. J. Pharmacol. 343(1):93, 1998) in a modified Tris-HCl buffer (50 mM Tris-HCl, pH 7.4, 12.5 mM MgCl2, 1 mM EDTA, 0.2% BSA) was used. Compounds of the invention were incubated with 2.5 nM [3H]Rauwolscine for 60 min at 25° C. Non-specific binding was estimated in the presence of 10 μM Prazosin. Receptor proteins were filtered and washed, the filters were then counted to determine [3H]Rauwolscine specifically bound. Compounds were screened at 1 μM or lower, using 1% DMSO as vehicle. Compounds of the invention were tested in this biochemical assay and percent inhibition of specific binding was determined. Biochemical assay results are presented as the percent inhibition of specific binding in Table B1a.

[3] = target: T3, Human adrenergic α2A receptor (Homo sapiens, UniProt P08913); assay: Radioligand binding, adrenergic α2A (Protocol Group A); set-up: expressed in transfected cells; host or cells: insect Sf9 cells; conditions: 0.1 μM compound; for percent inhibition of specific binding, Adrenergic α2A: [3H]MK-912, 0.1 µM; for inhibition at 0.1 µM: [3H]MK-912, read-out: percent inhibition of specific binding, Adrenergic α2A
T3 sequence (P08913 1-465): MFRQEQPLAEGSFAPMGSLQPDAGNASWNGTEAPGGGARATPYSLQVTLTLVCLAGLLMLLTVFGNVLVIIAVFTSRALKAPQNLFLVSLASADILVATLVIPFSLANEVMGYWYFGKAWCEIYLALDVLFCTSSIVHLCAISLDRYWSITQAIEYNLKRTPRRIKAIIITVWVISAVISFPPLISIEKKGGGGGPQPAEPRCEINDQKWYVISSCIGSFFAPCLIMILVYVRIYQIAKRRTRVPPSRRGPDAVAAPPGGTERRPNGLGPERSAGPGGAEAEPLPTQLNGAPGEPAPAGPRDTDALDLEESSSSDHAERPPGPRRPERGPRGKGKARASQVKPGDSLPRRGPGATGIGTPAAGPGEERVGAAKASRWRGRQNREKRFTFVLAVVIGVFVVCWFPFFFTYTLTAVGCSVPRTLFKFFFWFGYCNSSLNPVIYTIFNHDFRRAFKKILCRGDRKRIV
Experimental: To evaluate in radioligand binding assays the activity of compounds of the invention, human recombinant adrenergic α2A receptor expressed in insect Sf9 cells (Uhlen, S. et al, J. Pharmacol. Exp. Ther. 271:1558, 1994) in a modified Tris-HCl buffer (50 mM Tris-HCl, pH 7.4, 12.5 mM MgCl2, 2 mM EDTA) was used. Compounds of invention were incubated with 1 nM [^3H]MK-912 for 60 min at 25° C. MK912 is (2S-trans)-1,3,4,5′,6,6′,7,12b-octahydro-1′,3′-dimethyl-spiro[2H-benzofuro[2,3-a]quinolizine-2,4′(1′H)-pyrimidin]-2′(3′H)-one hydrochloride. Non-specific binding was estimated in the presence of 10 μM WB-4101 (2-(2,6-Dimethoxyphenoxyethyl)aminomethyl-1,4-benzodioxane hydrochloride). Receptor proteins were filtered and washed, the filters were then counted to determine [^3H]MK-912 specifically bound. Compounds were screened at 1 μM or lower, using 1% DMSO as vehicle. Compounds of the invention were tested in this biochemical assay and percent inhibition of specific binding was determined. Biochemical assay results are presented as the percent inhibition of specific binding in Table B1a.

c1cncc(CCn2c3c(c4ccccc42)C2CCCN2CC3)c1 (single isomer, unassigned) [2a] was tested, and the “percent inhibition of specific binding, Adrenergic α1B” value (“percent inhibition … Adrenergic α1B” below) [1] was 28%, the “percent inhibition of specific binding, Adrenergic α2B” value (“percent inhibition … Adrenergic α2B” for short) [2] was 102% and the “percent inhibition of specific binding, Adrenergic α2A” value (from here on “percent inhibition … Adrenergic α2A”) [3] was 31%.
For c1cncc(CCn2c3c(c4ccccc42)C2CCCN2CC3)c1 (single isomer, unassigned) [2b], the “percent inhibition … Adrenergic α1B” value [1] was 4%, the “percent inhibition … Adrenergic α2B” value [2] was 1% and the “percent inhibition … Adrenergic α2A” value [3] was 13%.
With Cc1ccc2c(c1)c1c(n2CC(OC(=O)N2CCCC2)c2ccncc2)CCN(C)C1 (single isomer, unassigned) [4a] the “percent inhibition … Adrenergic α1B” value [1] was 11%, the “percent inhibition … Adrenergic α2B” value [2] was 39% and the inhibition at 0.1 µM [3] was 21%.
With Cc1ccc(C(F)Cn2c3c(c4cccnc42)C2CCCN2CC3)cn1 (single isomer, unassigned) [10a] the “percent inhibition … Adrenergic α1B” value [1] was −3%, the “percent inhibition … Adrenergic α2B” value [2] was 4% and the “percent inhibition … Adrenergic α2A” value [3] was 0%.
In the case of Cc1ccc(C(F)Cn2c3c(c4cccnc42)C2CCCN2CC3)cn1 (single isomer, unassigned) [10b], the “percent inhibition … Adrenergic α1B” value [1] is reported as −5%, the “percent inhibition … Adrenergic α2B” value [2] is reported as 16% and the “percent inhibition … Adrenergic α2A” value [3] is reported as −1%.
Cc1ccc2c(c1)c1c(n2CC(C)(O)c2ccc(F)nc2)CCN2CCCC12 (stereo not drawn) [6b] was tested, and the inhibition at 0.1 µM [1] was 61%, the inhibition at 0.03 µM [2] was 93% and the inhibition at 0.1 µM [3] was 29%.
Cc1ccc2c(c1)c1c(n2CCc2cncc(S(C)(=O)=O)c2)CCN(C)C1 [Compound No. 1, 2,8-dimethyl-5-(2-(5-(methylsulfonyl)pyridin-3-yl)ethyl)-2,3,4,5-tetrahydro-1H-pyrido[4,3-b]indole] gave an inhibition at 0.1 µM [1] of 18%, an inhibition at 0.03 µM [2] of 64% and an inhibition at 0.1 µM [3] of 3%.
In the case of Cc1ccc2c(c1)c1c(n2/C=C/c2ccncc2)CCN2CCCC12 (stereo not drawn) [Compound No. 7, (E)-10-methyl-7-(2-(pyridin-4-yl)vinyl)-2,3,5,6,7,11c-hexahydro-1H-indolizino[7,8-b]indole], the inhibition at 0.1 µM [1] is reported as 99%, the inhibition at 0.03 µM [2] is reported as 108% and the inhibition at 0.1 µM [3] is reported as 93%.
Molecule Cc1ccc2c(c1)c1c(n2CC(OCCCC(=O)O)c2ccncc2)CCN(C)C1 (stereo not drawn) [compound 3, 4-(2-(2,8-dimethyl-3,4-dihydro-1H-pyrido[4,3-b]indol-5 (2H)-yl)-1-(pyridin-4-yl)ethoxy)butanoic acid] has an inhibition at 0.1 µM [1] of -5%, an inhibition at 0.03 µM [2] of 7% and an inhibition at 0.1 µM [3] of 5%.
For Cc1ccc2c(c1)c1c(n2CC(OC(=O)N2CCCC2)c2ccncc2)CCN(C)C1 (stereo not drawn) [compound 4, 2-(2,8-dimethyl-3,4-dihydro-1H-pyrido[4,3-b]indol-5(2H)-yl)-1-(pyridin-4-yl)ethyl pyrrolidine-1-carboxylate], the “percent inhibition … Adrenergic α1B” value [1] was 27%, the “percent inhibition … Adrenergic α2B” value [2] was 78% and the “percent inhibition … Adrenergic α2A” value [3] was 33%.
Work on Cc1ccc2c(c1)c1c(n2CC(OC(=O)N2CCN(C)CC2)c2ccncc2)CCN(C)C1 (stereo not drawn) [compound 5, 2-(2,8-dimethyl-3,4-dihydro-1H-pyrido[4,3-b]indol-5 (2H)-yl)-1-(pyridin-4-yl)ethyl 4-methylpiperazine-1-carboxylate] yielded an inhibition at 0.1 µM [1] of 5%, an inhibition at 0.03 µM [2] of 13% and an inhibition at 0.1 µM [3] of 10%.
Cc1ccc2c(c1)c1c(n2CC(OC(N)=O)c2ccncc2)CCN(C)C1 (stereo not drawn) [compound 8, 2-(2,8-dimethyl-3,4-dihydro-1H-pyrido[4,3-b]indol-5 (2H)-yl)-1-(pyridin-4-yl)ethyl carbamate] gave an inhibition at 0.1 µM [1] of 1%, an inhibition at 0.03 µM [2] of 42% and an inhibition at 0.1 µM [3] of 11%.
In the case of Cc1ccc2c(c1)c1c(n2C(CC(C)(C)C)C(=O)c2ccncc2)CCN(C)C1 (stereo not drawn) [compound 9, 2-(2,8-dimethyl-3,4-dihydro-1H-pyrido[4,3-b]indol-5 (2H)-yl)-4,4-dimethyl-1-(pyridin-4-yl)pentan-1-one], the inhibition at 0.1 µM [1] is reported as 77%, the inhibition at 0.03 µM [2] is reported as 107% and the inhibition at 0.1 µM [3] is reported as 85%.
